Experimental data from ChEMBL document CHEMBL3232730, “Design, synthesis and bioevaluation of N-trisubstituted pyrimidine derivatives as potent aurora A kinase inhibitors” (Eur J Med Chem, 2014).

What was measured:
[1] = Cell cycle arrest in human CNE2 cells assessed as accumulation at G1 phase at 1 uM after 24 hrs by propidium iodide staining-based flow cytometric analysis (reference value: 52.5%); type: functional; conditions: CNE-2
[2] = test system: A549; test: Antiproliferative activity against human A549 cells assessed as cell viability after 72 hrs by CCK8 assay; type: functional, cell-based; conditions: A549, 72 h
[3] = test system: K562; test: Antiproliferative activity against human K562 cells assessed as cell viability after 72 hrs by CCK8 assay; type: functional, cell-based; conditions: Homo sapiens, K562, 72 h; read-out: IC50
[4] = Cell cycle arrest in human CNE2 cells assessed as accumulation at S phase at 0.01 uM after 24 hrs by propidium iodide staining-based flow cytometric analysis (reference value: 14.9%); type: functional; conditions: CNE-2
[5] = test system: A-431; test: Antiproliferative activity against human A431 cells assessed as cell viability after 72 hrs by CCK8 assay; type: functional, cell-based; conditions: Homo sapiens, A-431, 72 h; read-out: IC50
[6] = Cell cycle arrest in human CNE2 cells assessed as accumulation at G2/M phase after 24 hrs by propidium iodide staining-based flow cytometric analysis; type: functional; conditions: CNE-2
[7] = test system: HCT-116; test: Antiproliferative activity against human HCT116 cells assessed as cell viability after 72 hrs by CCK8 assay; type: functional, cell-based; conditions: Homo sapiens, HCT-116, 72 h; read-out: IC50
[8] = Cell cycle arrest in human CNE2 cells assessed as accumulation at polyploid period at 0.01 uM after 24 hrs by propidium iodide staining-based flow cytometric analysis (reference value: […]); type: functional; conditions: CNE-2
[9] = target: T1, Aurora kinase A (Homo sapiens, UniProt O14965); test: Inhibition of Aurora A (unknown origin) using FAM-labeled peptide as substrate preincubated for 10 mins followed by substrate addition measured after 60 mins
T1 sequence (O14965 whole entry): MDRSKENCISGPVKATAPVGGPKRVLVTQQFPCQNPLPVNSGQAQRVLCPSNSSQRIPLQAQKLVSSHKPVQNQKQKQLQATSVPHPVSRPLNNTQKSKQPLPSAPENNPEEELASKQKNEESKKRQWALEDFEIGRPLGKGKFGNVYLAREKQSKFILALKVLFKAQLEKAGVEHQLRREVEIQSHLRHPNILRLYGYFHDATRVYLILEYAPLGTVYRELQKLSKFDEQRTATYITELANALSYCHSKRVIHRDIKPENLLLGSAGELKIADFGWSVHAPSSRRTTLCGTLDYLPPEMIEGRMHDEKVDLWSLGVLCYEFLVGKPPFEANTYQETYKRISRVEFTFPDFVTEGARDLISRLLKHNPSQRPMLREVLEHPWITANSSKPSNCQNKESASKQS

[10] = test system: DU-145; test: Antiproliferative activity against human DU145 cells assessed as cell viability after 72 hrs by CCK8 assay; type: functional, cell-based; conditions: Homo sapiens, DU-145, 72 h; read-out: IC50
[11] = Cell cycle arrest in human CNE2 cells assessed as accumulation at G1 phase at 0.1 uM after 24 hrs by propidium iodide staining-based flow cytometric analysis (reference value: […]); type: functional; conditions: CNE-2
[12] = Cell cycle arrest in human CNE2 cells assessed as accumulation at G2/M phase at 1 uM after 24 hrs by propidium iodide staining-based flow cytometric analysis (reference value: 38.2%); type: functional; conditions: CNE-2
[13] = Cell cycle arrest in human CNE2 cells assessed as accumulation at polyploid period at 1 uM after 24 hrs by propidium iodide staining-based flow cytometric analysis (reference value: […]); type: functional; conditions: CNE-2
[14] = test system: HeLa; test: Antiproliferative activity against human HeLa cells assessed as cell viability after 72 hrs by CCK8 assay; type: functional, cell-based; conditions: Homo sapiens, HeLa, 72 h; read-out: IC50
[15] = Cell cycle arrest in human CNE2 cells assessed as accumulation at S phase at 1 uM after 24 hrs by propidium iodide staining-based flow cytometric analysis (reference value: 14.7%); type: functional; conditions: CNE-2
[16] = test system: U-937; test: Antiproliferative activity against human U937 cells assessed as cell viability after 72 hrs by CCK8 assay; type: functional, cell-based; conditions: Homo sapiens, U-937, 72 h; read-out: IC50
[17] = Cell cycle arrest in human CNE2 cells assessed as accumulation at G2/M phase at 0.01 uM after 24 hrs by propidium iodide staining-based flow cytometric analysis (reference value: 31%); type: functional; conditions: CNE-2
[18] = Cell cycle arrest in human CNE2 cells assessed as accumulation at polyploid period at 0.1 uM after 24 hrs by propidium iodide staining-based flow cytometric analysis (reference value: […]%); type: functional; conditions: CNE-2
[19] = Antiproliferative activity against human PANC1 cells assessed as cell viability after 72 hrs by CCK8 assay; type: functional, cell-based; conditions: PANC-1, 72 h
[20] = Antiproliferative activity against human MOLT4 cells assessed as cell viability after 72 hrs by CCK8 assay; type: functional, cell-based, MOLT-4; conditions: Homo sapiens, MOLT-4, 72 h; read-out: IC50
[21] = test system: PC-3; test: Antiproliferative activity against human PC3 cells assessed as cell viability after 72 hrs by CCK8 assay; type: functional, cell-based; conditions: Homo sapiens, PC-3, 72 h; read-out: IC50
[22] = test system: MDA-MB-231; test: Antiproliferative activity against human MDA-MB-231 cells assessed as cell viability after 72 hrs by CCK8 assay; type: functional, cell-based; conditions: Homo sapiens, MDA-MB-231, 72 h; read-out: IC50
[23] = Cell cycle arrest in human CNE2 cells assessed as accumulation at G2/M phase at 0.1 uM after 24 hrs by propidium iodide staining-based flow cytometric analysis (reference value: 24.5%); type: functional; conditions: CNE-2
[24] = test system: HL-60; test: Antiproliferative activity against human HL60 cells assessed as cell viability after 72 hrs by CCK8 assay; type: functional, cell-based; conditions: Homo sapiens, HL-60, 72 h; read-out: IC50
[25] = Cell cycle arrest in human CNE2 cells assessed as accumulation at S phase at 0.1 uM after 24 hrs by propidium iodide staining-based flow cytometric analysis (reference value: 13.1%); type: functional; conditions: CNE-2
[26] = test system: NCI-N87; test: Antiproliferative activity against human NCI-N87 cells assessed as cell viability after 72 hrs by CCK8 assay; type: functional, cell-based; conditions: Homo sapiens, NCI-N87, 72 h; read-out: IC50
[27] = Antiproliferative activity against human SKBR3 cells assessed as cell viability after 72 hrs by CCK8 assay; type: functional, cell-based, SK-BR-3; conditions: Homo sapiens, SK-BR-3, 72 h; read-out: IC50
[28] = test system: MCF7; test: Antiproliferative activity against human MCF7 cells assessed as cell viability after 72 hrs by CCK8 assay; type: functional, cell-based; conditions: Homo sapiens, MCF7, 72 h; read-out: IC50
[29] = Cell cycle arrest in human CNE2 cells assessed as accumulation at G1 phase at 0.01 uM after 24 hrs by propidium iodide staining-based flow cytometric analysis (reference value: 52.5%); type: functional; conditions: CNE-2

IC50 [2] [nM] | IC50 [3] [nM] | IC50 [5] [nM] | IC50 [7] [nM] | IC50 [9] [nM] | IC50 [10] [nM] | IC50 [14] [nM] | IC50 [16] [nM] | IC50 [21] [nM] | IC50 [22] [nM] | IC50 [24] [nM] | IC50 [28] [nM] | Compound | Activity [1] [%] | Activity [12] [%] | Activity [13] [%] | Activity [15] [%] | IC50 [19] [nM] | IC50 [20] [nM] | IC50 [26] [nM] | IC50 [27] [nM] | further results
1690 | 509 | 332 | 923 | 22 | 2650 | 546 | 126 | 1080 | 240 | 397 | 933 | COc1cccc(Nc2nc(Nc3cc(C)[nH]n3)cc(N3CCN(C)CC3)n2)c1 | 3.2 | 92.5 | 2.4 | 1.7 | 693 | 192 | 7190 | 11300 | Activity [4]: 8.1%; Activity [6]: Dose-dependent effect; Activity [8]: 4.6%; Activity [11]: 57.2%; Activity [17]: 26.1%; Activity [18]: 4%; Activity [23]: 32.2%; Activity [25]: 6.9%; Activity [29]: 61.7%
1590 | 537 | 832 | 1040 | 25 | 611 | 1890 | 447 | 1090 | 571 | 750 | 938 | COC(=O)c1ccc(Nc2nc(Nc3cc(C)[nH]n3)cc(N3CCOCC3)n2)cc1 | 52.9 | 35.7 | 4 | 7.1 | 1590 | 302 | 3230 | 3180 | 
2650 | 271 | 385 | 2240 | 34 | 5050 | 867 | 92.3 | 2000 | 243 | 335 | 2750 | COc1ccc(Nc2nc(Nc3cc(C)[nH]n3)cc(N3CCN(C)CC3)n2)cc1 | 3.4 | 90.6 | 2.4 | 2.2 | 1120 | 116 | 18900 | 14700 | 
1830 | 359 | 532 | 672 | 46 | 798 | 1270 | 119 | 1500 | 359 | 203 | 1780 | COC(=O)c1ccc(Nc2nc(Nc3cc(C)[nH]n3)cc(N3CCN(C)CC3)n2)cc1 | 1.7 | 84.3 | 11.2 | 2.2 | 1080 | 161 | 17800 | 8650 | 
723 | 97.2 | 87.5 | 736 | 10 | 3090 | 425 | 21.7 | 573 | 56.4 | 131 | 436 | Cc1cc(Nc2cc(N3CCN(C)CC3)nc(Nc3cccc(Cl)c3)n2)n[nH]1 | 3.3 | 90.5 | 3.9 | 1.7 | 351 | 20.1 | 1770 | 2290 | 
